Assay type in all cases: biochemical
The target of assay [1] is Human recombinant HDAC4 (Homo sapiens (Human), UniProt P56524). Description: Test 2: HDAC4 assay (fluorogenic substrate, 5 μM acetyl-Gly-Ala-Lys(ε-trifluoroacetyl)-AMC). The note with it: Test 2 (values without asterisk). As for the experimental part:
Test 2: HDAC4 Assay Description
(§1) Control wells with HDAC4 only (positive control) and without HDAC4 (negative control) were included on the microplate. Bovine trypsin (4.5 μl of a 300 nM solution) was added and the plate incubated for additional 15 minutes at room temperature. The plate was placed in a fluorescence microplate reader, and read at an excitation wavelength of 360 nm and an emission wavelength of 450 nm with a 10 nm bandpath. Fluorescence values for all wells containing HDAC4 (positive control and wells with test compound) were corrected by subtracting negative control fluorescence values, and IC50 values were calculated by fitting the dose-response curves to a 4-parameter logistic function.

The target of assay [2] is Human recombinant full length HDAC1 (Homo sapiens (Human), UniProt Q13547). Description: Test 3: HDAC1 assay. The note with it: substrate 5 μM acetyl-Gly-Ala-Lys(acetyl)-AMC. As to the method: as §1
Human recombinant full length HDAC1, sequence (Q13547 whole entry): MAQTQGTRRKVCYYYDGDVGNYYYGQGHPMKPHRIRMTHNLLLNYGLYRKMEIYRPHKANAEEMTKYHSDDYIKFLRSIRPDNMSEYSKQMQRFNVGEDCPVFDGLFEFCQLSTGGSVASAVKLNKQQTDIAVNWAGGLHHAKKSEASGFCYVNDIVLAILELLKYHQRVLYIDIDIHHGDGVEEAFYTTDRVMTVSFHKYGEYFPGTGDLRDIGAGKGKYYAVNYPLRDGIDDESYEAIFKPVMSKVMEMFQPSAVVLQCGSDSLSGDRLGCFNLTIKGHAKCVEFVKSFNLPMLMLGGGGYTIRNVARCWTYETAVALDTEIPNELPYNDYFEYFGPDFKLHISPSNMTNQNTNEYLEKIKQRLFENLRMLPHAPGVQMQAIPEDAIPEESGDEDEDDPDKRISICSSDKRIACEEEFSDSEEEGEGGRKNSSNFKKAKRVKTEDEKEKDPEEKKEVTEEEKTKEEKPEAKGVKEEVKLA
Test 3: HDAC1 Assay Description
A similar assay procedure as described in Test 2 was used for HDAC1. Human recombinant full length HDAC1 expressed in a baculovirus expression system was purchased from BPS BioSciences (San Diego, Calif., U.S.A.). The substrate used in the […] assay was 5 μM of acetyl-Gly-Ala-Lys(acetyl)-AMC.

Assay [3] concerns the target Human recombinant full length HDAC6 (Homo sapiens (Human), UniProt Q9UBN7). Description: Test 4: HDAC6 assay. The following applies: Test 4; substrate 5 μM acetyl-Gly-Ala-Lys(acetyl)-AMC. As to the method:
as §1
Test 4: HDAC6 Assay Description
A similar assay procedure as described in Test 2 was used for HDAC6. Human recombinant full length HDAC6 expressed in a baculovirus expression system was purchased from BPS BioSciences (San Diego, Calif., U.S.A.). The substrate used in the […] assay was 5 μM of acetyl-Gly-Ala-Lys(acetyl)-AMC.

Human recombinant full length HDAC6, sequence (Q9UBN7 whole entry): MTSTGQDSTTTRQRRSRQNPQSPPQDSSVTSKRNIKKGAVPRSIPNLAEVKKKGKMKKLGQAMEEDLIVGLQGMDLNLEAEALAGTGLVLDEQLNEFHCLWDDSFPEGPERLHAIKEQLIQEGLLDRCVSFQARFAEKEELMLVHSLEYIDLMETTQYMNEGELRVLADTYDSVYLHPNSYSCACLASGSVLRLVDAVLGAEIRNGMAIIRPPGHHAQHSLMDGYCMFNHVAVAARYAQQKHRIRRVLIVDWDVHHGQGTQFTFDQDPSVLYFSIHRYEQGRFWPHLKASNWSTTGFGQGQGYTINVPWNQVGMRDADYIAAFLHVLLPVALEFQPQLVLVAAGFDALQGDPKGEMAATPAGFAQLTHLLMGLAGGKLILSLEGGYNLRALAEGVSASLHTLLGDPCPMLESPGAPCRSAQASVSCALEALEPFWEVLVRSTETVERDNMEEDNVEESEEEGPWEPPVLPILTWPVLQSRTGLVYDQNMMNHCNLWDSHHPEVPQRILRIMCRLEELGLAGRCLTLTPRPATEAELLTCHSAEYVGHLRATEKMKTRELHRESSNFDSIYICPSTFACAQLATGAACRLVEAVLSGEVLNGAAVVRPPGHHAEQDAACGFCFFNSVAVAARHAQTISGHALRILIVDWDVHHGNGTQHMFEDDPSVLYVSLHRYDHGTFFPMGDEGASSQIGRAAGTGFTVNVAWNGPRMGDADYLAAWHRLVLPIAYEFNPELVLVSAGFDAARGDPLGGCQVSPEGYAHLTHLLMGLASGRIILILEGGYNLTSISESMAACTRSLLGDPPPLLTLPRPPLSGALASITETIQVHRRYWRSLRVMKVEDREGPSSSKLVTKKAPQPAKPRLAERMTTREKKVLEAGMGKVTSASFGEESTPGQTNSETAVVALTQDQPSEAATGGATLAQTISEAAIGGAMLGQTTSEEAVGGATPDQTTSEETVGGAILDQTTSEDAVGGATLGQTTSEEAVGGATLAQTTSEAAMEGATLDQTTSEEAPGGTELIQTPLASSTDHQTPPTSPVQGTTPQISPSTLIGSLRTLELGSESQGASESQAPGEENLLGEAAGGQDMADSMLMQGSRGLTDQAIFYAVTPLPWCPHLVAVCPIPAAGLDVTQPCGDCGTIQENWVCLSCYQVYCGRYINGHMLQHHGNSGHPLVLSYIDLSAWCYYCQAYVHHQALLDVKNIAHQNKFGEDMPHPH
Human recombinant HDAC4, sequence (P56524 2-1084): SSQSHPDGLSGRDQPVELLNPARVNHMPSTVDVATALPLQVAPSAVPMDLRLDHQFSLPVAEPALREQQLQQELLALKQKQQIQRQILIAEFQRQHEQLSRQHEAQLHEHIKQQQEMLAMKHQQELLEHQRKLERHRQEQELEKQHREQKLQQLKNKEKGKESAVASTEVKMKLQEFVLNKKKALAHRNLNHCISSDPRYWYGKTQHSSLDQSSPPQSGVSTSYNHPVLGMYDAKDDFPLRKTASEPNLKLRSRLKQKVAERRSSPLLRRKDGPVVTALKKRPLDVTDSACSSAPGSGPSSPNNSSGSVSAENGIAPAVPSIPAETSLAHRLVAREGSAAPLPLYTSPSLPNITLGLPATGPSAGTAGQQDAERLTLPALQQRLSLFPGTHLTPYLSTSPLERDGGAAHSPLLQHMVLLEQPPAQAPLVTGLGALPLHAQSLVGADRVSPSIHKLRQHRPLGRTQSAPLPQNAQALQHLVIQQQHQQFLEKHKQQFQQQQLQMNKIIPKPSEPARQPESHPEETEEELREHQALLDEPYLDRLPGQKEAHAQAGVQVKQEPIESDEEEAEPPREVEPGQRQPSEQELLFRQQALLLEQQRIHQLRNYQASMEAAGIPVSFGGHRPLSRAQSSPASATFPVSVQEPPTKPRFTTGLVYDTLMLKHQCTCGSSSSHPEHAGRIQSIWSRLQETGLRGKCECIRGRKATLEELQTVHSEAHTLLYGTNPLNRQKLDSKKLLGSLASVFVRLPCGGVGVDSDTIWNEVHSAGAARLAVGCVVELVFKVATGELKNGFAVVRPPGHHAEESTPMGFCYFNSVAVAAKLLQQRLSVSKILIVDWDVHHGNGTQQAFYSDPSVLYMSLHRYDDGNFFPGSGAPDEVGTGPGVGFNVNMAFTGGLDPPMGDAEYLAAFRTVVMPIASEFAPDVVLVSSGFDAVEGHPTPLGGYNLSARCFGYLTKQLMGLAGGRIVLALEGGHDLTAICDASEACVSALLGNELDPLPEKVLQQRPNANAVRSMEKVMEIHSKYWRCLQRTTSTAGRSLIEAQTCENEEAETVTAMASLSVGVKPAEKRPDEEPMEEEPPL

As for `O=C(Nc1ccnc(O)c1)c1ccc(-c2noc(C(F)(F)F)n2)cc1` [Example 72, N-(2-hydroxypyridin-4-yl)-4-(5-(trifluoromethyl)-1,2,4-oxadiazol-3-yl)benzamide], the figures for the IC50 in assay [1], in assay [2] and in assay [3] were 0.14 µM, over 10 µM and over 10 µM, respectively.

Take `O=C(NCc1ccccc1)c1ccc(-c2noc(C(F)(F)F)n2)cc1` [Example 46, N-benzyl-4-(5-(trifluoromethyl)-1,2,4-oxadiazol-3-yl)benzamide]: the IC50 was 0.78 µM in assay [1], over 10 µM in assay [2] and 3.3 µM in assay [3].

As for `CCCN(CCC)C[C@@H](C)NC(=O)c1ccc(-c2noc(C(F)(F)F)n2)cc1F` [Example 141, (R)—N-(1-(dipropylamino)propan-2-yl)-2-fluoro-4-(5-(trifluoromethyl)-1,2,4-oxadiazol-3-yl)benzamide], the results for the IC50 in assay [1], in assay [2] and in assay [3] were 0.0014 µM, 4.2 µM and 1.4 µM, respectively.

As for `O=C(Nc1cccnc1)c1ccc(-c2noc(C(F)(F)F)n2)cc1` [Example 48, N-(ppyridin-3-yl)-4-(5-(trifluoromethyl)-1,2,4-oxadiazol-3-yl)benzamide], the IC50 is 0.14 µM in assay [1], over 10 µM in assay [2] and 4.8 µM in assay [3].

As for `CC(C)NC(=O)Cc1ccc(-c2noc(C(F)(F)F)n2)cc1` [Example 5, N-Isopropyl-2-[4-(5-trifluoromethyl-[1,2,4]oxadiazol-3-yl)-phenyl]-acetamide], the IC50 in assay [1] is 0.97 µM; in assay [2], over 10 µM; in assay [3], 3.1 µM.

With `CN(C)C[C@H](Cc1ccccc1)NC(=O)c1ccc(-c2noc(C(F)(F)F)n2)cc1` [Example 93, (S)—N-(1-(dimethylamino)-3-phenylpropan-2-yl)-4-(5-(trifluoromethyl)-1,2,4-oxadiazol-3-yl)benzamide], the IC50 in assay [1] is 0.19 µM; in assay [2] it was over 10 µM; in assay [3], 4.9 µM.

On to `CCC(CO)NC(=O)c1ccc(-c2noc(C(F)(F)F)n2)cc1` (stereo not drawn) [Example 56, N-(1-tetrahydroxy-2 H-butan-2-yl)-4-(5-(trifluoromethyl)-1,2,4-oxadiazol-3-yl)benzamide], for which the IC50 in assay [1] is 0.55 µM; in assay [2] it was over 10 µM; in assay [3] it was 6.8 µM.

As for `CC(C)(C)c1cc(NC(=O)c2ccc(-c3noc(C(F)(F)F)n3)cc2)ccn1` [Example 69, N-(2-(tert-butyl)pyridin-4-yl)-4-(5-(trifluoromethyl)-1,2,4-oxadiazol-3-yl)benzamide], the 50% inhibitory concentration (IC50) was 0.29 µM in assay [1], over 10 µM in assay [2] and 6.8 µM in assay [3].

Consider `CN1CCC(CNS(=O)(=O)c2ccc(-c3noc(C(F)(F)F)n3)cc2)C1` (stereo not drawn) [Example 115, N-((1-methylpyrrolidin-3-yl)methyl)-4-(5-(trifluoromethyl)-1,2,4-oxadiazol-3-yl)benzenesulfonamide], for which the figures for the IC50 in assay [1], in assay [2] and in assay [3] were 2.7 µM, over 10 µM and over 10 µM, respectively.

Consider `O=S(=O)(Nc1ccc(F)cc1)c1ccc(-c2noc(C(F)(F)F)n2)cc1` [Example 109, N-(4-fluorophenyl)-4-(5-(trifluoromethyl)-1,2,4-oxadiazol-3-yl)benzenesulfonamide], for which the half-inhibitory concentration (IC50) in assay [1] is 0.097 µM; in assay [2], over 10 µM; in assay [3] it was 0.44 µM.

With `CCCCNC(=O)Cc1ccc(-c2noc(C(F)(F)F)n2)cc1` [Example 6, N-butyl-2-(4-(5-(trifluoromethyl)-1,2,4-oxadiazol-3-yl)phenyl)acetamide], the values for the IC50 in assay [1], in assay [2] and in assay [3] were 0.63 µM, over 10 µM and 3.2 µM, respectively.

Regarding `CC(C)N(C)C[C@@H](C)NC(=O)c1ccc(-c2noc(C(F)(F)F)n2)cc1F` [Example 142, (R)-2-fluoro-N-(1-(isopropyl(methyl)amino)propan-2-yl)-4-(5-(trifluoromethyl)-1,2,4-oxadiazol-3-yl)benzamide], the IC50 in assay [1] was 0.0072 µM; in assay [2], over 10 µM; in assay [3], 5.4 µM.

For the origin of these results see patent publication US9056843B2, “Trifluoromethyl-oxadiazole derivatives and their use in the treatment of disease” (NOVARTIS AG, priority 2011, dated 2015).
